Reference: patent publication US11116738B2, “Methods for treating neutropenia using retinoid agonists” (CHILDREN'S HOSPITAL LOS ANGELES, priority 2012, dated 2021)

B1: G-CSF: recombinant granulocyte colony-stimulating factor (protein, UniProt P09919 31-207, looked up)
Granulocyte …: TPLGPASSLPQSFLLKCLEQVRKIQGDGAALQEKLVSECATYKLCHPEELVLLGHSLGIPWAPLSSCPSQALQLAGCLSQLHSGLFLYQGLLQALEGISPELGPTLDTLQLDVADFATTIWQQMEELGMAPALQPTQGAMPAFASAFQRRAGGVLVASHLQSFLEVSYRVLRHLAQP

Tests used:
CD34+ cells [1] = test: Morphologic analysis of granulocytic differentiation of CD34+ cells; format: cell-based, human; settings: for neutrophil morphologic differentiation, promyelocyte to segmented stage (in words): G-CSF 25 ng/ml or Am80 2.5 nM; for efficacy as inducer of granulocytic differentiation (in words): CD34+ cells, FIG. 6, day 12-13
Procedure: (§1) Normal human primitive umbilical cord blood CD34+ cells were from AllCells (Emeryville, Calif.). CD34+ cells were expanded^29 about 50× by using StemSpan serum-free medium (StemCell Technologies, Vancouver, Canada) for 6 days according to the manufacturer's protocol. To induce granulopoiesis, CD34+ cells were cultured with myeloid medium supplemented with 25 ng/ml of G-CSF^17,29 for 6-12 days. Lymphoid and erythroid cells were blocked during granulopoiesis by addition of hydrocortisone and exclusion of erythropoietin.^17, 29 All-trans retinoic acid (RA) was from Sigma (St. Louis, Mo.), while the retinoid agonists Am80, CH55, and IT-YA-01115 (ITYA) were from Research Foundation ITSUU Laboratory (Tokyo, Japan). Each retinoid compound was dissolved in ethanol. The experimentally determined conditions, using 25 ng/ml of G-CSF^17,29 or 2.5 nM of Am80 for granulocytic induction of 6 days (FIG. 1), were applied in the studies.
Cell suspensions were cytocentrifuged onto Micro slides, followed by methanol fixation and stained with Wright-Giemsa (Sigma) as described.^17,29 The morphologic indicators of differentiation were evaluated under a Zeiss Axioplan microscope, and images were color balanced with Adobe Photoshop as described.^17
Cells suspended in PBS containing 0.5% BSA and 2 mM EDTA were mixed with anti-CD15 antibodies conjugated to magnetic microbeads (Miltenyi Biotec, Bergish Gladbach, Germany) for incubation of 30 min at 4° C. CD15+ subpopulation was then purified by using magnetic sorter (Miltenyi Biotec, Bergish Gladbach, Germany) according to the manufacturer's protocol.

CD34+ cells [2] = format: cell-based; settings: for cell death rate (in words) / cell proliferation (in words): CD34+ cells, FIG. 6B, 6D
Procedure: as §1, with “[…].” for “Lymphoid and erythroid cells were blocked during granulopoiesis by addition of hydrocortisone and exclusion of erythropoietin.^17, 29 All-trans retinoic acid (RA) was from Sigma (St. Louis, Mo.), while the retinoid agonists Am80, CH55, and IT-YA-01115 (ITYA) were from Research Foundation ITSUU Laboratory (Tokyo, Japan).”
Cell proliferation was determined by cell count with a standard hemocytometer, as described.^17,29 Briefly, equal numbers of cells plated in triplicate were counted for up to 13 days after 72 hr of plating. By using trypan blue exclusion, cell proliferation and its associated cell death in the cultures were measured simultaneously.

[3] = system: neutrophils induced from CD34+ cells; test: Degranulation analysis by Western blotting with or without E. coli stimuli; format: cell-based, human; settings: FIGS. 1, 2
Procedure: Western blotting (WB) was performed as described.^15 Antibodies for lactoferrin (Abcam, Cambridge, UK), MMP-9 (Merck Chemicals, Darmstadt, Germany), and LL-37 (Biolegend, San Diego, Calif.) were used in analyses.
Cells were incubated with or without E. coli DH5α (MOI of 5; cell to bacteria ratio 1:5) in serum-free DMEM medium for 30 min at 37° C. Both cell pellets and supernatants were collected by 3,000-rpm centrifugation for 7 min. The cell pellets were suspended with 100 μg/ml of gentamicin and incubated at 37° C. for 1 hr, followed by collection of cells and extraction of cellular proteins. The supernatant was filtered with a 0.22-μm filter (Pall corporation, Ann Arbor, Mich.) and proteins in the supernatant were then concentrated by using an Amicon Ultra-4 centrifugal filter unit designed to collect proteins with a mass greater than 3,000 daltons (Millipore, Billerica, Mass.). The quantity of the proteins was measured by using Bio-Rad DC Protein Assay (Hercules, Calif.).^29 The change in granule protein levels with or without E. coli stimuli was analyzed in parallel by WB.

neutropenic mice = test: Neutrophil recovery in CPA-induced neutropenic mice; format: in vivo, C57BL6/J mice
[4] = system: acute promyelocytic leukemia (APL); settings: APL patients; cited from earlier work
S. aureus = test: Bactericidal activity in vitro of neutrophils purified from PB of treated neutropenic mice
Procedure: Each 5×10^5 to 2×10^6 of freshly purified PBN as well as ex vivo-induced GIN and AIN were suspended with 500 μl of culture medium (DMEM with 10% of FBS) in 1.5-ml tubes. Cells were incubated with log-phase Escherichia coli (E. coli) DH5α (provided by collaborator) or Staphylococcus aureus (S. aureus; ATCC) at an MOI of 5 or 10 at 37° C. for 15, 30, and/or 60 min, whereas bacteria in the absence of cells were used to determine growth. The samples with or without cells were centrifuged at 1000-rpm at each time point. Extracellular bacteria in the presence of cells were collected from the supernatants, and enumerated by plating different dilutions (20 μL each) on blood agar. Cell pellets collected from the samples infected with bacteria were further incubated with 100 μg/ml of gentamicin (Sigma) for 1 hr at 37° C. to kill external bacteria. Cells were then washed twice and lysed with 100 μL of 0.5% Triton X-100. Different-dilution aliquots (20 μL for each) of viable intracellular bacteria recovered from the cell lysates were plated on blood agar. The numbers of extracellular and viable intracellular bacteria at each time point were determined by CFU counts as described,^5,30 while the number of phagocytosed and killed bacteria was based on the counts of extracellular and viable intracellular bacteria to the number of relevant bacteria control in the neutrophil-free condition.^5,30

Molecule | neutrophil morphologic differentiation, promyelocyte to segmented stage (in words) (CD34+ cells [1]; 6 days) | granulocytic differentiation (in words) (CD34+ cells [1]; Am80 2.5 nM, 6 days) | efficacy as inducer of granulocytic differentiation (in words) (CD34+ cells [1]) | toxicity (in words) (CD34+ cells [2]; Am80 2.5 nM, 6 days) | cell death (in words) (CD34+ cells [2]; Am80 10 nM) | cell death rate (in words) (CD34+ cells [2]) | cell proliferation (in words) (CD34+ cells [2]) | granulocytic morphologic differentiation and granule production/secretion compared with G-CSF (in words) [3] | neutrophil recovery (in words) (neutropenic mice; day 3 post-CPA, Am80 5 mg/kg vs G-CSF of 250 μg, lower level of Ficoll-paque) | efficiency relative to RA or other retinoids as differentiation therapy [4] | toxicity relative to RA or other retinoids (in words) [4] | efficacy of mobilized neutrophils against S aureus infection (in words) (S. aureus) | monocytes induced (CD34+ cells [1]; G-CSF 25 ng/ml, 6 days) | granulocytic differentiation and monocytic induction by treatment time (in words) (CD34+ cells [1]; G-CSF for 6, 9 and 12 days) | neutrophil recovery (in words) (neutropenic mice; day 5, injection for 2 consecutive days)
CC1(C)CCC(C)(C)c2cc(NC(=O)c3ccc(C(=O)O)cc3)ccc21 [Am80, tamibarotene] | sufficiently induced | profoundly induced granulocytic differentiation with negligible monocytic induction | promote granulocytic differentiation with similar effectiveness | less toxicity than 5 nM of Am80 | induced more cell death | lower than seen with either CH55 or RA | inhibited cell proliferation | more effective than G-CSF | competitive neutrophil recovery | approximately 10 fold | lower toxicity | significantly more efficacious against S aureus infection than those by G-CSF |  |  | 
CC(C)(C)c1cc(C(=O)/C=C/c2ccc(C(=O)O)cc2)cc(C(C)(C)C)c1 [CH55] |  |  | promote granulocytic differentiation with similar effectiveness |  |  |  | inhibited cell proliferation |  |  |  |  |  |  |  | 
CC1=C(/C=C/C(C)=C/C=C/C(C)=C/C(=O)O)C(C)(C)CCC1 [RA, all-trans retinoic acid] |  |  | promote granulocytic differentiation with similar effectiveness |  |  |  | inhibited cell proliferation |  |  |  |  |  |  |  | 
B1 | induced more myeloblasts as well as promyelocytes and myelocytes than banded and segmented neutrophils |  | significantly less efficacious |  |  | lower rate of cell death compared to RA | greater cell proliferation |  |  |  |  |  | about 10% | more effective granulocytic differentiation with the lowest rate of monocytic induction on day 6 | remarkably accelerated neutrophil recovery
